Test results published in ChEMBL document CHEMBL1201862, “PubChem BioAssay data set” (2004).
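Results reflect a 48-hour exposure of cells in 96-well plates to compound at five concentrations. GI50 = concentration required for 50% inhibition of growth.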 Calls of active or inactive are those of the source. Rule as the data show it: active = GI50 up to about 1.1 µM and inactive = higher.

Columns and labels:
Assay in all cases: NCI tumour cell line growth inhibition, 48 h
A549 = tested on: A549
NCI-H226 = tested on: NCI-H226
SNB-75 = tested on: SNB-75
NCI-H23 = tested on: NCI-H23
IGROV-1 = tested on: IGROV-1
HT-29 = tested on: HT-29
SW-620 = tested on: SW-620
HOP-92 = tested on: HOP-92
K562 = tested on: K562
A498 = tested on: A498
UACC-257 = tested on: UACC-257
CCRF-CEM = tested on: CCRF-CEM
SNB-19 = tested on: SNB-19
NCI-H522 = tested on: NCI-H522
UACC-62 = tested on: UACC-62
786-0 = tested on: 786-0
M14 = tested on: M14

Measured: GI50

O=C(O)CCCCCCC[C@@H]1S[C@H]1CCCCCCO
inactive: A549 > 100 µM | NCI-H226 > 100 µM | SNB-75 > 100 µM | NCI-H23 > 100 µM | IGROV-1 > 64.7 µM | HT-29 > 100 µM | SW-620 > 100 µM | HOP-92 33.8 µM | K562 > 100 µM | A498 > 60.7 µM | UACC-257 > 100 µM | CCRF-CEM > 100 µM | SNB-19 > 100 µM | NCI-H522 > 100 µM | UACC-62 > 100 µM

CC(=O)OCC1OC(n2cnc3c(I)nc(I)nc32)C(OC(C)=O)C1OC(C)=O (stereo not given)
inactive: 786-0 14.3 µM | A549 17.7 µM | NCI-H226 19.4 µM | SNB-75 15.1 µM | NCI-H23 4.66 µM | IGROV-1 6.35 µM | HT-29 6.4 µM | SW-620 13.8 µM | HOP-92 3.18 µM | K562 3.69 µM | A498 22.2 µM | UACC-257 14.1 µM | CCRF-CEM 3.8 µM | SNB-19 12.5 µM | M14 17.2 µM | NCI-H522 1.91 µM | UACC-62 13.6 µM

CC(=O)Oc1c(OC(C)=O)c(-c2ccc(O)c(O)c2)c(O)c(O)c1-c1ccc(O)cc1
inactive: A549 > 100 µM | NCI-H226 > 100 µM | SNB-75 97.5 µM | NCI-H23 > 100 µM | IGROV-1 93.1 µM | HT-29 > 100 µM | SW-620 42.7 µM | HOP-92 30.2 µM | K562 50.7 µM | A498 > 100 µM | UACC-257 > 100 µM | CCRF-CEM 61 µM | SNB-19 > 100 µM | NCI-H522 17.7 µM | UACC-62 27.4 µM

COC(=O)/C(=C1\OC(=O)C(c2ccc(Cl)cc2)=C1O)c1ccc(Cl)cc1
inactive: 786-0 36.1 µM | A549 24.8 µM | NCI-H226 21.8 µM | SNB-75 22.8 µM | NCI-H23 16 µM | IGROV-1 52 µM | HT-29 30 µM | SW-620 35.7 µM | HOP-92 17.8 µM | K562 27 µM | A498 16.9 µM | UACC-257 16.5 µM | CCRF-CEM 24.2 µM | SNB-19 27.7 µM | M14 31.2 µM | NCI-H522 17.2 µM | UACC-62 17.9 µM

CC(C)CC/N=c1/cc2n(-c3ccc(Cl)cc3)c3ccccc3nc-2cc1Nc1ccc(Cl)cc1
inactive: A549 15.3 µM | NCI-H226 6.25 µM | SNB-75 9.75 µM | NCI-H23 3.43 µM | IGROV-1 3.13 µM | HT-29 2.52 µM | SW-620 6.44 µM | HOP-92 4.92 µM | K562 2.96 µM | A498 15 µM | UACC-257 7.6 µM | CCRF-CEM 3.72 µM | SNB-19 32.3 µM | NCI-H522 2.11 µM | UACC-62 5.52 µM

Cc1c2ccncc2c(C)c2c1[nH]c1ccc(O)c(OCC(F)(F)F)c12
inactive: 786-0 2.01 µM | A549 3.9 µM | NCI-H226 8.13 µM | SNB-75 9.93 µM | NCI-H23 6.1 µM | IGROV-1 8.22 µM | HT-29 > 7.5 µM | SW-620 3.55 µM | HOP-92 5.47 µM | K562 3.16 µM | A498 15.2 µM | UACC-257 10.6 µM | CCRF-CEM 2.33 µM | SNB-19 2.11 µM | M14 9.55 µM | NCI-H522 4.5 µM | UACC-62 10.5 µM

COC(=O)C(C(=O)C(=O)Nc1c(Cl)cc([N+](=O)[O-])cc1Cl)c1csc(-n2nc(C3=CCCCC3)cc2-c2ccccc2)n1 (stereo not given)
inactive: 786-0 74 µM | A549 64.7 µM | NCI-H226 25.4 µM | SNB-75 30.7 µM | HT-29 25.9 µM | SW-620 71 µM | HOP-92 10.1 µM | K562 48.5 µM | A498 32.9 µM | UACC-257 46.6 µM | CCRF-CEM 73.5 µM | SNB-19 37.3 µM | M14 > 100 µM | NCI-H522 45.2 µM | UACC-62 65.8 µM

CC1(C)C2C=CC1C(=O)CC2 (stereo not given)
inactive: 786-0 > 100 µM | A549 > 100 µM | NCI-H226 > 100 µM | SNB-75 > 100 µM | NCI-H23 > 100 µM | HT-29 > 100 µM | SW-620 > 100 µM | HOP-92 > 100 µM | K562 > 100 µM | A498 > 100 µM | UACC-257 49.9 µM | CCRF-CEM > 100 µM | SNB-19 15.9 µM | M14 > 100 µM | NCI-H522 > 100 µM

CC1CCC(C(C)C)C(O[C@@H]2OC(=O)C[C@@H]2Sc2ccccc2)C1 (stereo not given in full)
inactive: 786-0 21 µM | A549 24.9 µM | SNB-75 33.3 µM | NCI-H23 26.2 µM | IGROV-1 40.2 µM | HT-29 17.5 µM | SW-620 18.2 µM | K562 19.1 µM | A498 28.6 µM | UACC-257 16.3 µM | CCRF-CEM 7.01 µM | SNB-19 35.1 µM | M14 23.2 µM | UACC-62 24.7 µM

CC1(C)OCC(C(O)C2OC(C)(C)OC2/C=N\O)O1 (stereo not given)
inactive: 786-0 > 100 µM | A549 > 100 µM | SNB-75 > 100 µM | NCI-H23 > 100 µM | IGROV-1 > 100 µM | HT-29 > 100 µM | SW-620 > 100 µM | HOP-92 > 100 µM | K562 > 100 µM | A498 > 100 µM | UACC-257 > 100 µM | CCRF-CEM > 100 µM | SNB-19 > 100 µM | NCI-H522 > 100 µM

CCC(C)(C)NC1=C(NC(C)=O)C(=O)c2ccccc2C1=O
inactive: 786-0 > 75 µM | A549 > 75 µM | NCI-H226 > 75 µM | SNB-75 > 75 µM | NCI-H23 18.9 µM | IGROV-1 > 75 µM | HT-29 > 75 µM | SW-620 35.1 µM | K562 20.8 µM | UACC-257 20.3 µM | CCRF-CEM 17 µM | SNB-19 > 75 µM | M14 > 75 µM | NCI-H522 10.2 µM | UACC-62 24.9 µM

OCC1=CC(NC2CC(CO)C(O)C(O)C2O)C(O)C(O)C1O (stereo not given)
inactive: 786-0 > 100 µM | A549 > 100 µM | NCI-H226 94.4 µM | SNB-75 > 100 µM | NCI-H23 > 100 µM | IGROV-1 > 100 µM | HT-29 > 100 µM | SW-620 > 100 µM | K562 > 100 µM | UACC-257 > 100 µM | CCRF-CEM > 100 µM | SNB-19 > 100 µM | M14 > 100 µM | NCI-H522 > 100 µM | UACC-62 > 100 µM

O=C(O/N=C1\CCCC\C1=C/c1ccccc1)c1ccc([N+](=O)[O-])cc1
inactive: 786-0 98.6 µM | A549 88.5 µM | NCI-H226 > 100 µM | SNB-75 41.7 µM | NCI-H23 87.5 µM | HT-29 > 100 µM | SW-620 > 100 µM | HOP-92 > 100 µM | K562 74.1 µM | CCRF-CEM > 100 µM | M14 > 100 µM | NCI-H522 69.8 µM | UACC-62 > 100 µM

N#Cc1cnsc1
inactive: 786-0 > 100 µM | A549 > 100 µM | NCI-H226 > 100 µM | SNB-75 > 100 µM | NCI-H23 > 100 µM | IGROV-1 > 100 µM | HT-29 > 100 µM | SW-620 > 100 µM | HOP-92 > 100 µM | K562 > 100 µM | A498 > 100 µM | UACC-257 > 100 µM | CCRF-CEM > 100 µM | M14 > 100 µM | UACC-62 > 100 µM

COc1c2ccoc2c(S(=O)(=O)Nc2ccc(Cl)cc2)c2oc(C)cc(=O)c12
inactive: A549 > 100 µM | NCI-H226 > 81.1 µM | SNB-75 27.2 µM | NCI-H23 > 100 µM | IGROV-1 > 100 µM | HT-29 > 100 µM | SW-620 > 100 µM | HOP-92 41.9 µM | K562 > 100 µM | A498 54.6 µM | UACC-257 > 100 µM | CCRF-CEM > 100 µM | SNB-19 99.1 µM | NCI-H522 73.6 µM | UACC-62 > 100 µM

CCOC(=O)CNc1nnnn1C1OC(CO)C(O)C1O (stereo not given)
inactive: 786-0 > 100 µM | A549 > 100 µM | NCI-H226 > 100 µM | SNB-75 > 100 µM | IGROV-1 > 100 µM | HT-29 > 100 µM | SW-620 > 100 µM | K562 > 100 µM | A498 > 100 µM | UACC-257 > 100 µM | CCRF-CEM > 100 µM | M14 > 100 µM | NCI-H522 > 100 µM | UACC-62 > 100 µM

COc1cccc(NC(=O)C(=O)C(C(=O)c2ccccc2F)C2OC(=O)c3ccccc32)c1 (stereo not given)
inactive: A549 45.3 µM | NCI-H226 28 µM | SNB-75 24.9 µM | NCI-H23 29.6 µM | IGROV-1 56.6 µM | HT-29 34.3 µM | SW-620 42.6 µM | HOP-92 > 100 µM | K562 30.9 µM | A498 72.6 µM | UACC-257 > 100 µM | CCRF-CEM 16.9 µM | SNB-19 24.9 µM | M14 48 µM | NCI-H522 16.1 µM | UACC-62 26 µM

COc1cc(-c2cc(O)c3ccccc3n2)cc(OC)c1OC
inactive: 786-0 > 75 µM | A549 > 75 µM | SNB-75 50.5 µM | NCI-H23 > 75 µM | HT-29 > 75 µM | SW-620 > 75 µM | K562 > 75 µM | UACC-257 > 75 µM | CCRF-CEM > 75 µM | SNB-19 > 75 µM | M14 > 75 µM | NCI-H522 > 75 µM | UACC-62 > 75 µM
